Measured values as given in paper PMC10176470, “Engaging a Non-catalytic Cysteine Residue Drives Potent and Selective Inhibition of Caspase-6” (Journal of the American Chemical Society, 2023).

What was measured:
Assay type in all cases: cell-based
[1] = molecular target: proteins of HEK293T cells transiently overexpressing caspase-6 (Homo sapiens, UniProt P13647); conditions: Probe; protein KRT5 P13647
[2] = molecular target: proteins of HEK293T cells transiently overexpressing caspase-6 (Homo sapiens, UniProt P14866); conditions: exp_ref Probe; protein HNRNPL (P14866); analysis C6
[3] = molecular target: proteins of HEK293T cells transiently overexpressing caspase-6 (Homo sapiens, UniProt P26641); conditions: exp_ref Probe; protein EEF1G (P26641); analysis C6
[4] = molecular target: proteins of HEK293T cells transiently overexpressing caspase-6 (Homo sapiens, UniProt P31943); conditions: exp_ref Probe; protein HNRNPH1 (P31943); analysis C6
[5] = molecular target: proteins of HEK293T cells transiently overexpressing caspase-6 (Homo sapiens, UniProt P35527); conditions: Probe; protein KRT9 P35527
[6] = molecular target: proteins of HEK293T cells transiently overexpressing caspase-6 (Homo sapiens, UniProt P43487); conditions: exp_ref Probe; protein RANBP1 (P43487); analysis C6
[7] = molecular target: T1, proteins of HEK293T cells transiently overexpressing caspase-6 (Homo sapiens, UniProt P50990); conditions: protein CCT8 (P50990)
T1 sequence (P50990 1-548): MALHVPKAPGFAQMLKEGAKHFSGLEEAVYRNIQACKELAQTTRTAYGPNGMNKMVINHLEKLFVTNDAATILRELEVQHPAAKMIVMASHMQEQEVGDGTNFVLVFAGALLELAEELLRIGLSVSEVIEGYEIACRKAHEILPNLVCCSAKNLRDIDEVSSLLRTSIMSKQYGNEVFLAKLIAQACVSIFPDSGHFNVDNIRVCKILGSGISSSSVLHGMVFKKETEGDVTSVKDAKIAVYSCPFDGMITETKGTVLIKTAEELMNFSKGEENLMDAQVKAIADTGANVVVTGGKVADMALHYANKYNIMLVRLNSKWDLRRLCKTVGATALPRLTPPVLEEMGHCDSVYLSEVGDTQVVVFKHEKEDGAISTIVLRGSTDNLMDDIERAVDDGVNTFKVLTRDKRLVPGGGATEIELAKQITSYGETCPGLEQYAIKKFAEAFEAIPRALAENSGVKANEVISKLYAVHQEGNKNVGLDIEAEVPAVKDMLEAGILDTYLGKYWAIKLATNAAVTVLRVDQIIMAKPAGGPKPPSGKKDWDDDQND

[8] = molecular target: proteins of HEK293T cells transiently overexpressing caspase-6 (Homo sapiens, UniProt P53985); conditions: exp_ref Probe; protein SLC16A1 (P53985); analysis C6
[9] = molecular target: proteins of HEK293T cells transiently overexpressing caspase-6 (Homo sapiens, UniProt P62701); conditions: exp_ref Probe; protein RPS4X (P62701); analysis C6
[10] = molecular target: T2, proteins of HEK293T cells transiently overexpressing caspase-6 (Homo sapiens, UniProt Q13642)
T2 sequence (Q13642 1-323): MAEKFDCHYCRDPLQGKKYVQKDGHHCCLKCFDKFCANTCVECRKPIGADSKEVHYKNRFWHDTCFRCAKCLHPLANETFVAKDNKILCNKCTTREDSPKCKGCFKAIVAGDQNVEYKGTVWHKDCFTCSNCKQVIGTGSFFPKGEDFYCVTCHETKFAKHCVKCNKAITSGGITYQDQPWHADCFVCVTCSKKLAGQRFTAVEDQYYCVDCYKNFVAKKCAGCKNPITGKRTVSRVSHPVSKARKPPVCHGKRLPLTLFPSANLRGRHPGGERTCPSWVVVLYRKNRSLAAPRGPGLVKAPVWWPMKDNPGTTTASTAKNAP

[11] = molecular target: proteins of HEK293T cells transiently overexpressing caspase-6 (Homo sapiens, UniProt Q15084); conditions: exp_ref Probe; protein PDIA6 (Q15084); analysis C6
[12] = molecular target: proteins of HEK293T cells transiently overexpressing caspase-6 (Homo sapiens, UniProt Q15233); conditions: exp_ref Probe; protein NONO (Q15233); analysis C6
[13] = molecular target: proteins of HEK293T cells transiently overexpressing caspase-6 (Homo sapiens, UniProt Q92598); conditions: exp_ref Probe; protein HSPH1 (Q92598); analysis C6
[14] = molecular target: proteins of HEK293T cells transiently overexpressing caspase-6 (Homo sapiens, UniProt Q96AE4); conditions: Probe; protein FUBP1 Q96AE4
[15] = molecular target: proteins of HEK293T cells transiently overexpressing caspase-6 (Homo sapiens, UniProt Q9NVX2); conditions: Probe; protein NLE1 Q9NVX2
[16] = molecular target: proteins of HEK293T cells transiently overexpressing caspase-6 (Homo sapiens, UniProt Q9Y224); conditions: Probe; protein C14orf166 Q9Y224
proteins of HEK293T cells transiently overexpressing caspase-6 (Homo sapiens, UniProt Q9Y224), sequence (Q9Y224 whole entry): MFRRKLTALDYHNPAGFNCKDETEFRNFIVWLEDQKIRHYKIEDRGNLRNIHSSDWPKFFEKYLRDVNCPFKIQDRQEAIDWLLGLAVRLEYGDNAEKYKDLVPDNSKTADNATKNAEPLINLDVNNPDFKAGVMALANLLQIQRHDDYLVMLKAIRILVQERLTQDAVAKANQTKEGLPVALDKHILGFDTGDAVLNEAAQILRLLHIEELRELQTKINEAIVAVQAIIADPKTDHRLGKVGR

proteins of HEK293T cells transiently overexpressing caspase-6 (Homo sapiens, UniProt P26641), sequence (P26641 whole entry): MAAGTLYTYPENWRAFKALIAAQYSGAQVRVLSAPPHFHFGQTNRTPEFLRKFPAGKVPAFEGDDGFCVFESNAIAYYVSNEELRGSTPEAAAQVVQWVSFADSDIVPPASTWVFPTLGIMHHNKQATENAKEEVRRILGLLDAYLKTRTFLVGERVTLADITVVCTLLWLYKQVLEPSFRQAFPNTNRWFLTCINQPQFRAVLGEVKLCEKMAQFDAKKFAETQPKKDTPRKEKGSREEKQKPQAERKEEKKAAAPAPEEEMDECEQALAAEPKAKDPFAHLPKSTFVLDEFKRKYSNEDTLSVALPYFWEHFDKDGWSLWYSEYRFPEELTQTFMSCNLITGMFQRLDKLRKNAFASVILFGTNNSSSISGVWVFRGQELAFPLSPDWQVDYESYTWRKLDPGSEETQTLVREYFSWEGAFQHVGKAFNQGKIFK
proteins of HEK293T cells transiently overexpressing caspase-6 (Homo sapiens, UniProt Q96AE4), sequence (Q96AE4 whole entry): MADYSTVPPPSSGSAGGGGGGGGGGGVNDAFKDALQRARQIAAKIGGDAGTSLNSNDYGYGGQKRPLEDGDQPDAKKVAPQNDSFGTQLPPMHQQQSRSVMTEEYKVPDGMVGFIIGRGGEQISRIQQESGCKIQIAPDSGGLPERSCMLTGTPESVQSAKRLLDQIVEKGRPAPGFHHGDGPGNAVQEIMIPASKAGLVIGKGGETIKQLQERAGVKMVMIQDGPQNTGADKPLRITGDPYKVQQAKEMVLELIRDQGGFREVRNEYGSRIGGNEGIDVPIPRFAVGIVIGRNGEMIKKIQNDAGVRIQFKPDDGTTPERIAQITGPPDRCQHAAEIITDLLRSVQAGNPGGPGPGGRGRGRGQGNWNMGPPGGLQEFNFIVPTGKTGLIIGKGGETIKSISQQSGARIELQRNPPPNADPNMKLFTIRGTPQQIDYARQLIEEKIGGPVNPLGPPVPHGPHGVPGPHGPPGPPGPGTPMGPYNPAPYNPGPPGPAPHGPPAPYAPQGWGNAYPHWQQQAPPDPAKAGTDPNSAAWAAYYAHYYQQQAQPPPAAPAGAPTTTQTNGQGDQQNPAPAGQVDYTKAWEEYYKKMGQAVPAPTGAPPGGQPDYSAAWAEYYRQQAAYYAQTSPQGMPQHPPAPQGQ
proteins of HEK293T cells transiently overexpressing caspase-6 (Homo sapiens, UniProt P53985), sequence (P53985 whole entry): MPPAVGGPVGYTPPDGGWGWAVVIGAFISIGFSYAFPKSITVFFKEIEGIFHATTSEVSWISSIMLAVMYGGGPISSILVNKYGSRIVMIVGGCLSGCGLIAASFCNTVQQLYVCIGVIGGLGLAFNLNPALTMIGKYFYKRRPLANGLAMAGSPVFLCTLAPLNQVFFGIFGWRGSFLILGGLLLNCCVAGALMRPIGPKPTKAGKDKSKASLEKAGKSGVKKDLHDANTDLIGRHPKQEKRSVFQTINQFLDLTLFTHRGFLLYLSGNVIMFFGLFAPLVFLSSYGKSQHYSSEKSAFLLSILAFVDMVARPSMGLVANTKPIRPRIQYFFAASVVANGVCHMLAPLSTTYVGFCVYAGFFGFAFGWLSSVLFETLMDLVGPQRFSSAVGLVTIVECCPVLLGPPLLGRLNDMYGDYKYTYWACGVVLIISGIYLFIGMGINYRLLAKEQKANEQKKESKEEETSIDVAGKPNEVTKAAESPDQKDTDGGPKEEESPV
proteins of HEK293T cells transiently overexpressing caspase-6 (Homo sapiens, UniProt Q15233), sequence (Q15233 whole entry): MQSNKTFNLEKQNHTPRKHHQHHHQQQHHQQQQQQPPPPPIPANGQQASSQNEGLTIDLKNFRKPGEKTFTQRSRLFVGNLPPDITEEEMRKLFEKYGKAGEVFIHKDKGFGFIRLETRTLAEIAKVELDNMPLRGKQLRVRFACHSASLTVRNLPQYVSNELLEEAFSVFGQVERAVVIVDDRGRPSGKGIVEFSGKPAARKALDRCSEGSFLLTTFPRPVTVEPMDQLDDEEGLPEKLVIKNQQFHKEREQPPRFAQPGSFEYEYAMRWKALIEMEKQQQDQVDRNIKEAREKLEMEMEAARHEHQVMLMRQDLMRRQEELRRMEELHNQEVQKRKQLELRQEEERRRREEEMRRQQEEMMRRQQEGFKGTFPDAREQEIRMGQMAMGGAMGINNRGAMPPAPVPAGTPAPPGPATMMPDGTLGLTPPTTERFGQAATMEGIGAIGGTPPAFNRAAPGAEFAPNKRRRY
proteins of HEK293T cells transiently overexpressing caspase-6 (Homo sapiens, UniProt P35527), sequence (P35527 whole entry): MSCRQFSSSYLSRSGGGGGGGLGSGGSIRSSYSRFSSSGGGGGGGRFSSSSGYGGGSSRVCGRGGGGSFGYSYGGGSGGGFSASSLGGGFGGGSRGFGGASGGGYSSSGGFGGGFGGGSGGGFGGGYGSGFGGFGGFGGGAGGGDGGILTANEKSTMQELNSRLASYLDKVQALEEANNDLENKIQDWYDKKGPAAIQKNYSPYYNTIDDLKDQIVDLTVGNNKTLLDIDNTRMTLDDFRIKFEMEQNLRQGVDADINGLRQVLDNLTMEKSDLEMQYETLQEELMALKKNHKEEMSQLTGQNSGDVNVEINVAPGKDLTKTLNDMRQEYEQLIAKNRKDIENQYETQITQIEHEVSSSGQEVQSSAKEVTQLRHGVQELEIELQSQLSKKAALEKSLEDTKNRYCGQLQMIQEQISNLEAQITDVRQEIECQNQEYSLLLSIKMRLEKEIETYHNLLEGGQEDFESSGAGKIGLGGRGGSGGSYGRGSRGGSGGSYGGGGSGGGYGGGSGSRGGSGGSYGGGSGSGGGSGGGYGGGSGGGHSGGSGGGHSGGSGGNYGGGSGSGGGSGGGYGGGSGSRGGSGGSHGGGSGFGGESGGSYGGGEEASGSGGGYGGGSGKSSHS
proteins of HEK293T cells transiently overexpressing caspase-6 (Homo sapiens, UniProt P31943), sequence (P31943 whole entry): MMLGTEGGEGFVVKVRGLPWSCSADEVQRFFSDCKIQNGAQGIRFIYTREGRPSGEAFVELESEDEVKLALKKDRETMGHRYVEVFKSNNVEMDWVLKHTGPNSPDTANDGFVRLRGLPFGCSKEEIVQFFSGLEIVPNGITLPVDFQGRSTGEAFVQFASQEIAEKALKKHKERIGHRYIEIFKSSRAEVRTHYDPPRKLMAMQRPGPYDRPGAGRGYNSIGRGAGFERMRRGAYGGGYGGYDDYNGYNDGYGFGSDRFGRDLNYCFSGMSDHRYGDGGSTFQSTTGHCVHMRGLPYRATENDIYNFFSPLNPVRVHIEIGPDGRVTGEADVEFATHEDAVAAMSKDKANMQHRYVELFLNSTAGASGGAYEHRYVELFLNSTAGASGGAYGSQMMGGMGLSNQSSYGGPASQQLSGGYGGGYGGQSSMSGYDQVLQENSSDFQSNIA
proteins of HEK293T cells transiently overexpressing caspase-6 (Homo sapiens, UniProt P43487), sequence (P43487 whole entry): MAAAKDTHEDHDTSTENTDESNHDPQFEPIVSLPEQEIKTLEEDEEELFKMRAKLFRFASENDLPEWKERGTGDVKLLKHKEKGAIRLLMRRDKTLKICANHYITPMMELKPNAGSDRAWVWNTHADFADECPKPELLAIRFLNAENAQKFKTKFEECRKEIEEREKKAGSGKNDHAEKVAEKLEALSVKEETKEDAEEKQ
proteins of HEK293T cells transiently overexpressing caspase-6 (Homo sapiens, UniProt P13647), sequence (P13647 whole entry): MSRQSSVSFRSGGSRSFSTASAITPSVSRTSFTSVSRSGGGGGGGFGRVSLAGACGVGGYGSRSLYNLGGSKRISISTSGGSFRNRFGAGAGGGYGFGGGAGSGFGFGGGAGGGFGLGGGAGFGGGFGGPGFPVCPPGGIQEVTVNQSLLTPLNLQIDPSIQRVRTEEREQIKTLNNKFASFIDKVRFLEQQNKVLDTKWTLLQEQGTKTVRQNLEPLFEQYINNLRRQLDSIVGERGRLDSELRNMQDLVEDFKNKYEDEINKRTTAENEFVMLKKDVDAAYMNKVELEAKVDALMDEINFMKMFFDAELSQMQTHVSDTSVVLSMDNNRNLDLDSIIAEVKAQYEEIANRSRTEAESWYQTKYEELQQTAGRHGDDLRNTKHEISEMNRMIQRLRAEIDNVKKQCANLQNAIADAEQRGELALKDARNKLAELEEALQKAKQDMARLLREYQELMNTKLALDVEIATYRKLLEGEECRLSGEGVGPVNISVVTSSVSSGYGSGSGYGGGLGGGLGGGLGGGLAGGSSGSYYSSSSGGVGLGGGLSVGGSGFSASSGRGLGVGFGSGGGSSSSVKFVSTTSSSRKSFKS
proteins of HEK293T cells transiently overexpressing caspase-6 (Homo sapiens, UniProt Q15084), sequence (Q15084 20-440): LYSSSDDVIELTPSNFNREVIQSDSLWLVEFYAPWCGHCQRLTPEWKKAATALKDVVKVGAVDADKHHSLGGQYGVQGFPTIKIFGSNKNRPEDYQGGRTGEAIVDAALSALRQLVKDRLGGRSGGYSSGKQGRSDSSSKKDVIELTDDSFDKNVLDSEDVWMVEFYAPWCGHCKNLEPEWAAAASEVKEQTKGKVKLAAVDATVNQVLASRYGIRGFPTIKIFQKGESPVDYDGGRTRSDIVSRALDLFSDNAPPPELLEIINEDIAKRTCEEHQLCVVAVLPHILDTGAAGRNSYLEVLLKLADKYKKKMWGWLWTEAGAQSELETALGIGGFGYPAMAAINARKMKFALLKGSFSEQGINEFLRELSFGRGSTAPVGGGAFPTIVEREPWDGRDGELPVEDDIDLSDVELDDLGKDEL

`C#CCOc1ccc([C@@H]2C[C@@H](C(=O)Nc3ccc(OC(F)(F)F)cc3)CN(S(=O)(=O)C=C)C2)cc1` (relative stereo) [13-t] was tested, and the enrich.exp.med [1] was -6.8, the enrich.exp.med [2] was 0.1244 and the enrich.exp.med [3] was 0.5675. The enrich.exp.med [4] was -0.1466, the enrich.exp.med [5] was -6.8322 and the enrich.exp.med [6] was 0.3695. The enrich.exp.med ([7]; exp_ref Probe, analysis C6) was 0.932, the enrich.exp.med.lin [7] was 1.908 and the enrich.exp.med.log2 [7] was 0.932. The enrich.exp.med [8] was -0.3557, the enrich.exp.med [9] was 0.8885 and the enrich.exp.med ([10]; Probe, protein FHL1 Q13642) was -0.95. It also gave an enrich.exp.med.lin ([10]; protein FHL1 (Q13642)) of 0.5176, an enrich.exp.med.log2 ([10]; protein FHL1 (Q13642)) of -0.95 and an enrich.exp.med [11] of 0.9602. It also gave an enrich.exp.med [12] of 0.7906, an enrich.exp.med [13] of 0.7489 and an enrich.exp.med [14] of -1.073. For the same molecule, the enrich.exp.med [15] was -1.769 and the enrich.exp.med [16] was -1.579.
